Source: PMC10991509, “A phase I study of ATR inhibitor gartisertib (M4344) as a single agent and in combination with carboplatin in patients with advanced solid tumours” (British Journal of Cancer, 2024)

How the values were obtained:
[1] = test system: advanced solid tumours; assay: Antitumour activity (RECIST v1.1); assay type: in vivo, human
Excerpt: The secondary objectives for cohorts A, A2, and B1 were to assess antitumour activity and PK. Endpoints associated with antitumour activity included confirmed best overall response (BOR), according to RECIST v1.1. PK endpoints included PK parameter estimates, derived from plasma concentration-time data. Please see the Supplementary Materials for details on further PK endpoints and assessments as well as the PK assessment schedule (Supplementary Table S2).
In cohort C, the primary objectives were to evaluate safety, tolerability, and antitumour activity of gartisertib monotherapy in patients with LOF mutations in ARID1A (cohort C1), ATRX and/or DAXX (cohort C2), or ATM (cohort C3). The primary endpoints included safety (treatment-emergent AEs [TEAEs] and treatment-related TEAEs; laboratory abnormalities; clinically significant abnormal vital signs; and clinically significant abnormal ECGs and antitumour activity (objective response [OR], defined as confirmed BOR of complete response [CR] or partial response [PR], according to RECIST v1.1). Secondary endpoints included duration of response; progression-free survival [PFS]) as well as PK parameter estimates of gartisertib in patients with LOF mutations. The Supplementary Materials provide further information on efficacy assessments and definitions.
In cohorts A, A2, B1, and C, antitumor activity was assessed in patients with measurable disease with standard criteria (Response Evaluation Criteria in Solid Tumors version 1.1 [RECIST v1.1]). In patients with prostate cancer, Prostate Cancer Clinical Trials Working Group 2 (PCWG2) criteria were used. Patients underwent an imaging scan at screening to document extent of initial disease and in all cohorts of the study, patients underwent repeat imaging scans. Imaging scans were locally assessed for all study cohorts. Bone scans were performed as were evaluations of serum […] in patients with ovarian cancer and serum prostate-specific antigen in patients with prostate cancer.
In addition, for cohort C, tumor assessments according to RECIST v1.1 were performed at baseline and at completion of every two cycles of treatment for the first six cycles and then every three cycles thereafter until disease progression or initiation of a new anticancer therapy line. Objective response, best overall response, duration of response and progression-free survival will be determined by the investigator based on these tumor assessments, with objective responses needing to be confirmed at a scan no fewer than 4 weeks after the original evaluation. Independent review may be performed if necessary.
Objective response was defined as a confirmed assessment of complete response or partial response by the investigator using RECIST v1.1. Confirmed best overall response was defined as the best confirmed response from start of treatment. Tumor assessments performed after start of further anticancer treatment line were not used to determine best overall response. Progression-free survival was defined as the time between the start of study treatment to progressive disease (PD) or death (in case PD is not observed prior to death).

[2] = test system: variant allele frequency of somatic alterations in ctDNA; assay: Molecular response: variant allele frequency in ctDNA; assay type: in vivo, human; details: for patients with reduced variant allele frequency of the selected biomarkers: cohort C, 250 mg QD
Excerpt: Exploratory objectives were to assess ATR inhibition and DNA damage by measuring phosphorylation of the Ser-139 residue of the histone variant H2AX (ɣ-H2AX) post-treatment in peripheral blood mononuclear cells (cohorts A2 and C), describe the mutational landscape and its relationship to BOR in patients with selected biomarkers (cohort C) and to determine changes in allele frequencies in mutations of interest and their association with clinical benefit (molecular response; cohorts A2 and C). Further details on the definitions of LOF mutations and methods of biomarker collection are described in the Supplementary Materials.
Use of ATRX/DAXX mutations as proxies for ALT-positive tumors enabled use of a single next-generation sequencing test for all biomarkers in this study. Loss of function mutations were defined as loss of the gene locus, a mutation defined as pathogenic in the ClinVar database or a mutation in one of the following categories: splice_acceptor_variant, splice_donor_variant, stop_gained, frameshift_variant, stop_lost or start_lost. Archival formalin-fixed paraffin-embedded tumor biopsies and serial blood samples collected in two 10 mL Streck tubes (Streck) were analyzed for the presence of genetic alterations in tumor DNA and circulating tumor DNA (ctDNA) with the FoundationOne® CDx NGS assay (Foundation Medicine, Cambridge, Massachusetts, US, FoundationOne®CDx Technical Information. https://www.accessdata.fda.gov/cdrh_docs/pdf17/P170019S006C.pdf) and Guardant Health OMNI assay (Guardant, Palo Alto, CA, US. Technical Information https://www.accessdata.fda.gov/cdrh_docs/pdf20/P200010C.pdf), respectively.
Molecular responses were measured in ctDNA as best-on-treatment change in variant allele frequency of somatic alterations with baseline value ≥0.3%.

Nc1nn2cc(F)cnc2c1C(=O)Nc1cncc(F)c1N1CCC(C(=O)N2CCN(C3COC3)CC2)CC1 [gartisertib, Gartisertib]
cBOR Not evaluable ([1]; Cohort A2, 100 mg BID (N=7)): 2 (28.6) n patients (%) | cBOR Partial response ([1]; Cohort A2, 100 mg BID (N=7)): 0 (0.0) n patients (%) | cBOR Progressive disease ([1]; Cohort A2, 100 mg BID (N=7)): 4 (57.1) n patients (%) | cBOR Stable disease ([1]; Cohort A2, 100 mg BID (N=7)): 1 (14.3) n patients (%) | cBOR Not evaluable ([1]; Cohort A2, 150 mg QD (N=4)): 0 (0.0) n patients (%) | cBOR Partial response ([1]; Cohort A2, 150 mg QD (N=4)): 0 (0.0) n patients (%) | cBOR Progressive disease ([1]; Cohort A2, 150 mg QD (N=4)): 3 (75.0) n patients (%) | cBOR Stable disease ([1]; Cohort A2, 150 mg QD (N=4)): 1 (25.0) n patients (%) | cBOR Not evaluable ([1]; Cohort A2, 250 mg QD (N=7)): 0 (0.0) n patients (%) | cBOR Partial response ([1]; Cohort A2, 250 mg QD (N=7)): 0 (0.0) n patients (%) | cBOR Progressive disease ([1]; Cohort A2, 250 mg QD (N=7)): 3 (42.9) n patients (%) | cBOR Stable disease ([1]; Cohort A2, 250 mg QD (N=7)): 4 (57.1) n patients (%) | cBOR Not evaluable ([1]; Cohort A2, 350 mg QD (N=5)): 0 (0.0) n patients (%) | cBOR Partial response ([1]; Cohort A2, 350 mg QD (N=5)): 0 (0.0) n patients (%) | cBOR Progressive disease ([1]; Cohort A2, 350 mg QD (N=5)): 3 (60.0) n patients (%) | cBOR Stable disease ([1]; Cohort A2, 350 mg QD (N=5)): 2 (40.0) n patients (%) | cBOR Not evaluable ([1]; Cohort A, 10 mg BIW (N=1)): 1 (100.0) n patients (%) | cBOR Partial response ([1]; Cohort A, 10 mg BIW (N=1)): 0 (0.0) n patients (%) | cBOR Progressive disease ([1]; Cohort A, 10 mg BIW (N=1)): 0 (0.0) n patients (%) | cBOR Stable disease ([1]; Cohort A, 10 mg BIW (N=1)): 0 (0.0) n patients (%) | cBOR Not evaluable ([1]; Cohort A, 20 mg BIW (N=1)): 0 (0.0) n patients (%) | cBOR Partial response ([1]; Cohort A, 20 mg BIW (N=1)): 0 (0.0) n patients (%) | cBOR Progressive disease ([1]; Cohort A, 20 mg BIW (N=1)): 0 (0.0) n patients (%) | cBOR Stable disease ([1]; Cohort A, 20 mg BIW (N=1)): 1 (100.0) n patients (%) | cBOR Not evaluable ([1]; Cohort A, 40 mg BIW (N=1)): 0 (0.0) n patients (%) | cBOR Partial response ([1]; Cohort A, 40 mg BIW (N=1)): 0 (0.0) n patients (%) | cBOR Progressive disease ([1]; Cohort A, 40 mg BIW (N=1)): 1 (100.0) n patients (%) | cBOR Stable disease ([1]; Cohort A, 40 mg BIW (N=1)): 0 (0.0) n patients (%) | cBOR Not evaluable ([1]; Cohort A, 80 mg BIW (N=1)): 0 (0.0) n patients (%) | cBOR Partial response ([1]; Cohort A, 80 mg BIW (N=1)): 0 (0.0) n patients (%) | cBOR Progressive disease ([1]; Cohort A, 80 mg BIW (N=1)): 1 (100.0) n patients (%) | cBOR Stable disease ([1]; Cohort A, 80 mg BIW (N=1)): 0 (0.0) n patients (%) | cBOR Not evaluable ([1]; Cohort A, 160 mg BIW (N=1)): 0 (0.0) n patients (%) | cBOR Partial response ([1]; Cohort A, 160 mg BIW (N=1)): 0 (0.0) n patients (%) | cBOR Progressive disease ([1]; Cohort A, 160 mg BIW (N=1)): 1 (100.0) n patients (%) | cBOR Stable disease ([1]; Cohort A, 160 mg BIW (N=1)): 0 (0.0) n patients (%) | cBOR Not evaluable ([1]; Cohort A, 300 mg BIW (N=1)): 0 (0.0) n patients (%) | cBOR Partial response ([1]; Cohort A, 300 mg BIW (N=1)): 0 (0.0) n patients (%) | cBOR Progressive disease ([1]; Cohort A, 300 mg BIW (N=1)): 1 (100.0) n patients (%) | cBOR Stable disease ([1]; Cohort A, 300 mg BIW (N=1)): 0 (0.0) n patients (%) | cBOR Not evaluable ([1]; Cohort A, 450 mg BIW (N=3)): 0 (0.0) n patients (%) | cBOR Partial response ([1]; Cohort A, 450 mg BIW (N=3)): 0 (0.0) n patients (%) | cBOR Progressive disease ([1]; Cohort A, 450 mg BIW (N=3)): 1 (33.3) n patients (%) | cBOR Stable disease ([1]; Cohort A, 450 mg BIW (N=3)): 2 (66.7) n patients (%) | cBOR Not evaluable ([1]; Cohort A, 700 mg BIW (N=6)): 2 (33.3) n patients (%) | cBOR Partial response ([1]; Cohort A, 700 mg BIW (N=6)): 0 (0.0) n patients (%) | cBOR Progressive disease ([1]; Cohort A, 700 mg BIW (N=6)): 2 (33.3) n patients (%) | cBOR Stable disease ([1]; Cohort A, 700 mg BIW (N=6)): 2 (33.3) n patients (%) | cBOR Not evaluable ([1]; Cohort A, 1050 mg BIW (N=7)): 1 (14.3) n patients (%) | cBOR Partial response ([1]; Cohort A, 1050 mg BIW (N=7)): 0 (0.0) n patients (%) | cBOR Progressive disease ([1]; Cohort A, 1050 mg BIW (N=7)): 5 (71.4) n patients (%) | cBOR Stable disease ([1]; Cohort A, 1050 mg BIW (N=7)): 1 (14.3) n patients (%) | cBOR Not evaluable ([1]; Cohort A, 1200 mg BIW (N=4)): 2 (50.0) n patients (%) | cBOR Partial response ([1]; Cohort A, 1200 mg BIW (N=4)): 0 (0.0) n patients (%) | cBOR Progressive disease ([1]; Cohort A, 1200 mg BIW (N=4)): 1 (25.0) n patients (%) | cBOR Stable disease ([1]; Cohort A, 1200 mg BIW (N=4)): 1 (25.0) n patients (%) | cBOR Not evaluable ([1]; Cohort C, 250 mg QD (N=13)): 2 (15.4) n patients (%) | cBOR Partial response ([1]; Cohort C, 250 mg QD (N=13)): 0 (0.0) n patients (%) | cBOR Progressive disease ([1]; Cohort C, 250 mg QD (N=13)): 8 (61.5) n patients (%) | cBOR Stable disease ([1]; Cohort C, 250 mg QD (N=13)): 3 (23.1) n patients (%) | BOR of SD ([1]; cohort A2 (full analysis set 23)): 34.8% | BOR of SD ([1]; cohort A (full analysis set 26)): 26.9% | BOR of SD ([1]; cohort C (full analysis set 13)): 23.1% | median PFS interval ([1]; cohort C, 95% CI 0.8, 2.1): 1.6 months | disease control according to selected biomarker status (ARID1A, ATRX/DAXX, ATM) ([1]; cohorts A2 and C): No difference in disease control | patients with SD for >6 months ([1]; three patients across all study cohorts): 3.1% | patients with TP53-reduced variant allele frequency ([2]; cohort A2, 100 mg BID): 0/2 | patients with TP53-reduced variant allele frequency ([2]; cohort A2, 150 mg QD): 1/2 | patients with TP53-reduced variant allele frequency ([2]; cohort A2, 250 mg QD (RP2D)): all six | patients with TP53-reduced variant allele frequency ([2]; cohort A2, 350 mg QD): 0/4 | patients with TP53-reduced variant allele frequency ([2]; cohort A2, patients achieving SD as best response): 4/5 | patients with TP53-reduced variant allele frequency ([2]; cohort A2, patients with PD): 2/6 | patients with reduced variant allele frequency of the selected biomarkers ([2]; SD as best response): all four | patients with reduced variant allele frequency of the selected biomarkers ([2]; patients with PD): 2/5
